Measurements as given in ChEMBL document CHEMBL3988442, “University of Dundee, Small-Polar-MMV Screening Library” (2021).

Target: Tryptophan--tRNA ligase (Mycobacterium tuberculosis (strain ATCC 25618 / H37Rv), UniProt P9WFT3)
Test: Biochemical assay for Mt-TrpRS
Type: functional

Chain of Tryptophan--tRNA ligase (P9WFT3 whole entry): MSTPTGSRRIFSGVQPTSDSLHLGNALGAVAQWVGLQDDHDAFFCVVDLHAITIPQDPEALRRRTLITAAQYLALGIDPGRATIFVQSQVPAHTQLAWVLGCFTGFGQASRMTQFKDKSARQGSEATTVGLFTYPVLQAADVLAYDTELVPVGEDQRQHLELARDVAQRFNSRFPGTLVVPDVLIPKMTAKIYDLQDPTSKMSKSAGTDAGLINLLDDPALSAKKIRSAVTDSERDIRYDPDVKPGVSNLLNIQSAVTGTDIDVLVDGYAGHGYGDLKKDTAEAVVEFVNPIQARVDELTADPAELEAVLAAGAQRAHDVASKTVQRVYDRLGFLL

Row | Compound | IC50 [µM]
1 | CNC(=O)C1(C)CN(c2nc(C)cc(C)n2)CCO1 (stereo unspecified) | > 195
2 | CNC(=O)c1cnn2c(C3CCCN3C)ccnc12 (stereo unspecified) | > 195
3 | O=C(NCCc1ccccc1)C1CCN(C(=O)Cn2cncn2)C1 (stereo unspecified) | > 195
4 | Cc1c[nH]nc1C1CCN(C(=O)C2CCC2)CC1 | > 195
5 | COc1cccc(S(=O)(=O)N2C[C@@H](O)[C@H](N(C)C)C2)c1 | > 195
6 | Nc1nccc(C2CCN(CC3CC3)C2)n1 (stereo unspecified) | > 195
7 | Cn1nccc1CN1CCCC(COc2ccccc2F)C1 (stereo unspecified) | > 195
8 | O=C(NCc1ccccn1)c1cncc(C2CCCN2)n1 (stereo unspecified) | > 195
9 | Cc1nccc(N2CCCC2CCNS(C)(=O)=O)n1 (stereo unspecified) | > 195
10 | O=C(c1ccc(=O)[nH]n1)N1CCNCC1c1ccccc1 (stereo unspecified) | > 195
11 | Oc1cc(CC2COCCN(CC3(O)CCOCC3)C2)ncn1 (stereo unspecified) | > 195
12 | COCCNc1nnc(-c2ccccn2)s1 | > 195
13 | CCc1n[nH]c(C(=O)NCCn2ccc(C)n2)c1C | > 195
14 | O=C(NCc1ccccn1)c1cnc(C2CCCN2)cn1 (stereo unspecified) | > 195
15 | Cc1nc(C(=O)NCc2ccccn2)cc(C2CCCN2)n1 (stereo unspecified) | > 195
16 | Cc1cnc(N)c(C(=O)C2CCN(C(=O)C3CCC3)CC2)c1 | > 195
17 | Cc1cnc(N)c(C(=O)C2CCN(C(=O)c3cnc(C)cn3)CC2)c1 | > 195
18 | Cc1nc(C2CCCN2C(=O)COc2ccccc2)ncc1C(N)=O (stereo unspecified) | > 195
19 | COc1ccc(C2Nc3cc(Cl)ccc3C3=NCCN32)cc1O (stereo unspecified) | > 195
20 | COCC(=O)N1CCCCC1c1nccc(C)n1 (stereo unspecified) | > 195
21 | CC(=O)N1CCCC(c2ccccn2)C1 (stereo unspecified) | > 195
22 | COc1ccccc1CC(=O)N1CC[C@H](O)[C@]2(CCCO2)C1 | > 195
23 | C[C@@]1(O)CCN(Cc2cc[nH]n2)C[C@H]1Oc1cccc(F)c1 | > 195
24 | Cn1cncc1CN1CC[C@](C)(O)[C@@H](Oc2cccc(F)c2)C1 | > 195
25 | CO[C@H]1CN(Cc2cc(F)ccc2F)CC[C@@]12CCCO2 | > 195
26 | C[C@]1(O)CN(Cc2ncc[nH]2)CC[C@@H]1Oc1cccc(F)c1 | > 195

Row | Compound | IC50 [µM]
27 | C[C@]1(O)CN(CCO)CC[C@@H]1Oc1cccc(F)c1 | > 195
28 | Cc1cnc(CC2COCCN(Cc3nccn3C)C2)cn1 (stereo unspecified) | > 195
29 | CN(C)c1ccc(CC2COCCN(Cc3nccn3C)C2)nn1 (stereo unspecified) | > 195
30 | C[C@]1(O)CN(CCC(N)=O)CC[C@@H]1Oc1cccc(F)c1 | > 195
31 | CC(=O)N1CCCC(Cc2nccn2C)C1 (stereo unspecified) | > 195
32 | Cn1nccc1CCC(=O)N1CCCC(Cc2cccnc2)C1 (stereo unspecified) | > 195
33 | Cc1cccc(C2CCCN2S(=O)(=O)N(C)C)n1 (stereo unspecified) | > 195
34 | CCn1cc(C(=O)N2CCCC(c3nccs3)C2)cn1 (stereo unspecified) | > 195
35 | O=C1CCCN1CCCC(=O)N1CCCC(Cc2cccnc2)C1 (stereo unspecified) | > 195
36 | Cc1ccc(CN2C[C@H](NC(=O)c3nccn3C)[C@H]3OCCC[C@H]32)o1 | > 195
37 | Cc1ccc(N2CCc3ncnc(C)c3CC2)nn1 | > 195
38 | CCC(=O)N1CCC2(C=C(C(=O)N3CCCC3)c3ccccc32)CC1 | > 195
39 | COCCN1C(=O)CC[C@@H]2[C@H]1CCN2S(=O)(=O)c1cccs1 | > 195
40 | CN(C)C(=O)NCC1CC2(CO1)CN(c1nncs1)C2 (stereo unspecified) | > 195
41 | O=C(NCC1CC2(CO1)CN(c1ncccn1)C2)C1CCC1 (stereo unspecified) | > 195
42 | Cc1cc(CN2CC[C@@H]3O[C@@H](c4nnc(C)o4)C[C@H]3C2)no1 | > 195
43 | COc1ccc(-c2cc(C3CCCNC3)ccn2)cc1 (stereo unspecified) | > 195
44 | Cc1cnccc1-c1cnn(CCNC(=O)c2ccncc2)c1C1CC1 | > 195
45 | CNC(=O)c1cc(C2CCCNC2)n[nH]1 (stereo unspecified) | > 195
46 | Cc1cc(C)nc(C2CCCNC2)n1 (stereo unspecified) | > 195
47 | CN(C)CCNC(=O)c1nc2c(s1)CCCN2C(=O)C1CC1 | > 195
48 | O=C(NCC1CC2(CO1)CN(Cc1cccs1)C2)C1CCC1 (stereo unspecified) | > 195
49 | c1cnc(N2CCO[C@H]3CN(CC4CCOC4)C[C@H]32)cn1 (stereo partly specified) | > 195
50 | CC(=O)N1CCO[C@@H]2CN(Cc3cccc(Cl)c3)C[C@@H]2C1 | > 195
51 | CN1CC[C@@H]2OC[C@H](C(=O)N(C)Cc3ccccn3)C[C@@H]2C1 | > 195
